Series [1] in a line: Clinical study: plasma pharmacokinetics of MB-102 given intravenously to human patients. The series is classed as in vivo. The procedure:
(§1) In a clinical study, 60 human patients were administered MB-102 ((2R,2′R)-2,2′-((3,6-diaminopyrazine-2,5-dicarbonyl)bis(azanediyl))bis(3-hydroxypropanoic acid)) prepared in Example 12) intravenously. Blood and urine were collected in addition to the methods and techniques disclosed herein. Standard pharmacokinetic data was collected and comparison was made between the methods and techniques disclosed herein to Omnipaque® (iohexol), a known contrast agent used for GFR determination.
Shown in FIGS. 3A to 3D are data collected from the 60 human patients tested with MB-102. Plasma pharmacokinetic data was collected and analyzed using methods known in the art and compared to the data measured using the methods and techniques disclosed herein.
FIGS. 3A to 3D illustrate a two compartment pharmacokinetic model for the elimination of MB-102. The model is consistent for patients regardless of their GFR values. FIG. 3A is for patients having normal kidney function having a measured GFR (mGFR) of 120 mL/min. FIG. 3B is for patients having a mGFR of 81 mL/min. FIG. 3C is for patients having a mGFR of 28 mL/min. FIG. 3D is for patients having a mGFR of 25 mL/min. The first compartment in the two compartment model is the vascular to tissue equilibrium while the second compartment illustrates renal excretion only. On average, the time for equilibration is about one hour, and is subject dependent.
Shown in FIG. 6 is the plasma concentration half-life of MB-102 for patients having either normal kidney function, stage 1 renal impairment, stage 2 renal impairment, stage 3 renal impairment, or stage 4 renal impairment.

Series [2] can be described thus: Clinical study: 12 hour urine collection, amount recovered and degree of secondary metabolism. The series is classed as in vivo, human. On the procedure:
as §1
As part of the clinical 1 study for MB-102, urine was collected from patients for 12 hours to determine the amount recovered and degree of secondary metabolism. […] For patients having normal, stage 1 and stage 2 renal function, 12 hour collection time was sufficient for greater than 99% recovery of MB-102. In view of the pharmacokinetic data and the plasma half-life determination, less than complete collection is readily understood for patients having more serious renal function impairment.

Series [3] is described as follows: Stability testing of MB-102, HPLC evaluation. The series is classed as physicochemical. The settings on record: 25° C. and 60% relative humidity. On the procedure: Samples of MB-102 were prepared and stored at 25° C. and 60% relative humidity for 24 months. HPLC evaluation of each sample was performed at various time points to assess the stability of the samples.

With `Nc1nc(C(=O)N[C@H](CO)C(=O)O)c(N)nc1C(=O)N[C@H](CO)C(=O)O` [MB-102, (2R,2′R)-2,2′-((3,6-diaminopyrazine-2,5-dicarbonyl)bis(azanediyl))bis(3-hydroxypropanoic acid)], the “time for equilibration (vascular to tissue equilibrium)” value in series [1] (human patients, intravenous, on average, subject dependent) was “about one”. Besides, the average plasma half-life result in series [1] (normal renal function group) is on record as “two”. In series [1] (stage 3 renal impairment), this molecule came in with a plasma half-life of 4 h. For the same molecule, the “MB-102 recovered from urine” value in series [2] (patients having a mGFR value below 60, 12 hours, likewise unmetabolized) is “a lower percentage was recovered”. The “MB-102 recovered unmetabolized from urine” value in series [2] (patients having an eGFR greater than 60, after 12 hours) was “greater than 99%”. Further, the “Purity (HPLC)” value is reported as over 99% in series [3] (0 months); over 99% in series [3] (6 months); 98.9% in series [3] (12 months); 98.3% in series [3] (18 months); 97.8% in series [3] (24 months).

Values taken from patent US11602570B2, “Compositions and systems for renal function determination” (MediBeacon Inc., priority 2017, dated 2023).
